Laboratory results: the NIST ThermoML archive (doi:10.1021/je049816w)
± gives the expanded uncertainty stated by the source.

Details: Liquid, Ebulliometric method (Recirculating still)

CCOC(C)OCC [1,1-diethoxyethane]
Details | vapor or sublimation pressure [kPa]
328.35 K | 19 ± 0.2
341.62 K | 32.1 ± 0.2
345.13 K | 36.7 ± 0.2
348.33 K | 41.1 ± 0.2
353.38 K | 49.2 ± 0.2
357.95 K | 57.9 ± 0.3
361.96 K | 66.1 ± 0.3
364.68 K | 72.3 ± 0.3
366.99 K | 77.9 ± 0.3
369.09 K | 83.1 ± 0.3
371.7 K | 90.1 ± 0.3
373.41 K | 94.8 ± 0.3
375.27 K | 100 ± 0.3
